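Cells were grown in 96-well plates and exposed to each compound for 48 hours at five concentrations; endpoints were interpolated linearly between bracketing concentrations, or set to the highest concentration if not reached. The concentration for full growth arrest is given as TGI.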
What was measured:
Experiment in all cases: growth of human tumour cells (NCI), 48 h
A549 NSCLC = tested on: A549 NSCLC
HCC-2998 colon = tested on: HCC-2998 colon
HCT-116 colon = tested on: HCT-116 colon
K-562 leukemia = tested on: K-562 leukemia
KM12 colon = tested on: KM12 colon
NCI-H460 lung = tested on: NCI-H460 lung
NCI-H522 lung = tested on: NCI-H522 lung
RPMI-8226 leukemia = tested on: RPMI-8226 leukemia
SK-MEL-28 melanoma = tested on: SK-MEL-28 melanoma
SNB-19 CNS = tested on: SNB-19 CNS
MDA-N = tested on: MDA-N
NCI/ADR-RES ovarian = tested on: NCI/ADR-RES ovarian
T-47D breast = tested on: T-47D breast
PC-3 prostate = tested on: PC-3 prostate

| Compound | TGI (A549 NSCLC) [µM] | TGI (HCC-2998 colon) [µM] | TGI (HCT-116 colon) [µM] | TGI (K-562 leukemia) [µM] | TGI (KM12 colon) [µM] | TGI (NCI-H460 lung) [µM] | TGI (NCI-H522 lung) [µM] | TGI (RPMI-8226 leukemia) [µM] | TGI (SK-MEL-28 melanoma) [µM] | TGI (SNB-19 CNS) [µM] | TGI (MDA-N) [µM] | TGI (NCI/ADR-RES ovarian) [µM] | TGI (T-47D breast) [µM] | TGI (PC-3 prostate) [µM] |
| --- | --- | --- | --- | --- | --- | --- | --- | --- | --- | --- | --- | --- | --- | --- |
| CC1(c2cccc3c2C2(O)C=CC4(CCC32)OCCO4)OCCO1 (configuration not stated) | > 100 | > 100 | > 100 | > 100 | > 100 | > 100 | > 100 | > 100 | > 100 | > 100 |  |  |  |  |
| CSc1ccccc1P(c1ccccc1SC)c1ccccc1SC | > 100 |  | > 100 | > 100 | > 100 |  |  | > 100 | > 100 | > 100 | > 100 | > 100 | > 100 |  |
| CC(=O)OCCOCNC(=S)N/N=C/c1ccc2ccccc2n1 | > 100 | > 100 | > 100 | > 100 | > 100 | > 100 | 62.7 | > 100 | > 100 | > 100 |  |  |  |  |
| COC(=O)C1CC(=O)CCC1c1ccccc1 (configuration not stated) | > 100 | > 100 | > 100 | > 100 | > 100 | > 100 | > 100 | > 100 | > 100 | > 100 |  |  |  |  |
| COc1ccc(-c2cc(-c3ccc(Cl)cc3)n(C3OC(CO)C(O)C(O)C3O)c(=S)c2C#N)cc1 (configuration not stated) |  | > 100 | > 100 | > 100 | > 100 | > 100 |  | > 100 | > 100 | > 100 | > 100 |  | > 100 | > 100 |
| Cc1ccc(N/C(Sc2ccccc2)=C(/C(Cl)=C(Cl)Cl)[N+](=O)[O-])c(C)c1 | > 81.5 | 36 | 30.8 | 45.8 | 32.2 | 32.7 | 42.9 | 64.8 | 41.2 | 54 |  | 70.4 |  | 36.1 |
| CC1C2=C(CC(C)(C)CC2=O)NC2=C1C(=O)CC(C)(C)C2 | > 100 | > 100 |  | > 100 | > 100 | > 100 |  | > 100 | > 100 | > 100 |  | > 100 |  | > 100 |
| N=C(N)C1CN(CCc2cnc[nH]2)C(=O)NC1=O (configuration not stated) | > 100 | > 100 | > 100 |  | > 100 | > 100 | > 100 | > 100 | > 100 | > 100 | > 100 |  |  | > 100 |
| Cc1c(/C=N/NC(=S)Nc2cccc(Cl)c2)c(=O)n(-c2ccccc2)n1C |  | > 100 | > 100 | 31.5 | > 100 | 21.8 |  | > 100 | > 100 | 37.1 |  | 33.8 | > 100 | > 100 |
| CCC(CC)C(=O)OC[n+]1ccc(-c2c(COC(=O)NC(C)C)c(COC(=O)NC(C)C)c3n2CCC3)cc1 | > 100 | > 100 |  | > 100 |  |  | > 100 | > 100 |  | > 100 | > 100 | > 100 |  | > 100 |
| O=C1NCN(c2ccccc2)C12CCN(CCc1ccc3[nH]c(=S)[nH]c3c1)CC2 | > 100 |  | > 100 |  | > 100 | > 100 | > 100 | 59.3 | 20.3 | > 100 |  | > 100 | 56.8 | 75.1 |
| C=CCN1C(=O)CC1N(CC=C)S(=O)(=O)c1ccc(C)cc1 (configuration not stated) | > 100 | > 100 | > 100 | > 100 | > 100 | > 100 | > 100 | > 100 | > 100 | > 100 | > 100 | > 100 |  | > 100 |
| C#CCSc1nc(N)c2ncn(C3OC(CO)C(O)C3O)c2n1 (configuration not stated) | > 100 | > 100 | > 100 | > 100 | > 100 | > 100 | > 100 | > 100 | > 100 | > 100 |  |  |  |  |
| NC(=O)c1cc(-c2ccc(-n3ccnc3)cc2)n[nH]c1=O | > 100 | > 100 | > 100 |  |  | > 100 | > 100 | > 100 | > 100 | > 100 | > 100 |  |  | > 100 |
| O=C1CSC(/C(=C/c2ccccc2)c2nc3ccccc3[nH]2)=N1 | > 100 | > 100 | > 100 | > 100 | > 100 | > 100 | > 100 |  | > 100 | > 100 |  |  |  |  |
| Clc1cc(OCc2nn3c(Cc4ccccc4)nnc3s2)ccc1OCc1nn2c(Cc3ccccc3)nnc2s1 | > 100 | > 100 | > 100 | > 100 | > 100 | > 100 | > 100 | > 100 | > 100 | 82.7 |  | > 100 | 79.4 | > 100 |

| Compound | TGI (A549 NSCLC) [µM] | TGI (HCC-2998 colon) [µM] | TGI (HCT-116 colon) [µM] | TGI (K-562 leukemia) [µM] | TGI (KM12 colon) [µM] | TGI (NCI-H460 lung) [µM] | TGI (NCI-H522 lung) [µM] | TGI (RPMI-8226 leukemia) [µM] | TGI (SK-MEL-28 melanoma) [µM] | TGI (SNB-19 CNS) [µM] | TGI (MDA-N) [µM] | TGI (NCI/ADR-RES ovarian) [µM] | TGI (T-47D breast) [µM] | TGI (PC-3 prostate) [µM] |
| --- | --- | --- | --- | --- | --- | --- | --- | --- | --- | --- | --- | --- | --- | --- |
| C=CCC1C(=O)C(C(=O)OC)N2CCc3c([nH]c4ccccc34)C12 (configuration not stated) | > 100 | > 100 | > 100 | > 100 | > 100 |  | > 100 | > 100 | > 100 | > 100 |  |  |  |  |
| CCCCCCCC(=O)OC[C@@H](C[As](=O)(O)O)OC(=O)CCCCCCC | 19.3 | 29.2 | 22.6 | 51.4 |  |  | 4.83 | 46.2 | 26.6 | 27.3 |  |  |  |  |
| CCN(CC)c1ccc2c(c1)OC(=O)C(c1nnc(-c3ccc([N+](=O)[O-])cc3)o1)C2 (configuration not stated) | > 100 | > 100 | > 100 | > 100 | > 100 | > 100 | > 100 | > 100 | > 100 | > 100 | > 100 | > 100 |  | > 100 |
| CN1C(OCc2ccccc2)c2c(ccc3c2OCO3)C2C=Cc3cc4c(cc3C21)OCO4 (configuration not stated) |  | 2.99 | 1.44 |  | 2.22 | 3.09 | 2.16 | 0.584 | 1.63 | 3.06 |  |  |  |  |
| C[C@]12CCC3c4ccc(O)cc4CC[C@H]3C1CC(=O)N(N)C2=O (some centres not stated) | > 100 | > 100 | > 100 | > 100 | > 100 | > 100 | > 100 |  | > 100 | > 100 | > 100 |  | > 100 | > 100 |
| O=C(O)c1c[nH]c2c(=O)[nH]cnc12 | > 100 | > 100 | > 100 | > 100 | > 100 |  | > 100 | > 100 | > 100 | > 100 |  |  |  |  |
| CC1(C)C(c2ccccc2)=NN(O)c2ccccc21 | > 100 | > 100 | > 100 | > 100 | > 100 | > 100 | > 100 | > 100 | > 100 | > 100 |  |  |  |  |
| CCN(CC)CCNc1ccc2ncn3c4c(OC)ccc(OC)c4c(=O)c1c23 | 54.4 | 31 | 17.3 | 49.4 | 22.6 | 31.3 | 44.2 |  | 39.2 | 58.7 | 25.4 | 31.1 | > 100 |  |
| CC1=CCC2(C#N)CCC1C2O (configuration not stated) | > 100 | > 100 | > 100 | > 100 | > 100 | > 100 | > 100 | > 100 | > 100 | > 100 |  |  |  |  |
| O=C(C/C(=N\NC(=O)C[n+]1ccccc1)C(=O)Nc1nc2ccc([N+](=O)[O-])cc2s1)CC(c1ccccc1)c1c(O)c2ccccc2oc1=O (configuration not stated) | > 100 | > 100 | > 100 | > 100 | > 100 | > 100 | > 100 | > 100 | > 100 | > 100 |  |  |  |  |
| C=C[C@@]1(C)CCC2(O)C(CCC3C2(C)CCC[C@@]3(C)COC(=O)CC(=O)OC)C1 (some centres not stated) | 35.9 | > 100 | 32.3 | 63.5 | 32.6 | > 100 | 32.4 | 47 | 30.9 | > 100 |  |  |  |  |
| COc1ccc(-c2cnoc2-c2ccc(OC)c(OC)c2)cc1OC | > 44.8 |  | 12.6 | > 100 | 16.9 | 19.8 | 2.1 | 18.5 | > 21.9 | 98.6 |  |  |  |  |
| O=C(CC(=O)C(=O)Nc1ccccc1)CC(c1ccccc1)c1c(O)c2ccccc2oc1=O (configuration not stated) | > 100 | > 100 | > 100 | > 100 | > 100 | > 100 | > 100 |  | > 100 | > 100 |  |  |  |  |
| CC1CC(=O)Nc2cc(Cl)ccc2N1C(=O)C1CC1 (configuration not stated) | > 100 | > 100 | > 100 | > 100 | > 100 | > 100 | > 100 | > 100 | > 100 | > 100 | > 100 |  | > 100 | > 100 |
| O=C1c2cccc3cc([N+](=O)[O-])cc(c23)C(=O)N1NC1=NCCN1 | > 100 | > 100 | > 100 | > 100 | > 100 | > 100 | > 100 | > 100 | > 100 | > 100 |  |  |  |  |

Reference: PubChem BioAssay (NCI)
